Laboratory results reported in ChEMBL document CHEMBL1909294, “Translating clinical findings into knowledge in drug safety evaluation--drug induced liver injury prediction system (DILIps)” (PLoS Comput Biol, 2011).

How the values were obtained:
[1] = test system: Hepatotoxicity;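 as to HepSE cholecystitis: Cholecystitis-related hepatic side effect score drawn from the DILIps (drug-induced liver injury prediction) training data set; call rule not given here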;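 as to HepSE cholelithiasis: hepatic side effect score for cholelithiasis, drawn from the DILIps training data for predicting drug-induced liver injury; call rule not given here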;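 as to HepSE cirrhosis: cirrhosis hepatic side effect score taken from the DILIps (drug-induced liver injury prediction) training set; call rule not given here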;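 as to HepSE elevated liver function tests: hepatic side effect score for raised liver function tests, as recorded in the DILIps training set used for predicting drug-induced liver injury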; as to HepSE hepatic failure: call rule not given here;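 as to HepSE hepatomegaly: hepatic side effect score for hepatomegaly, taken from the training set of the DILIps drug-induced liver injury prediction system; call rule not given here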; as to HepSE liver disease: call rule not given here
[2] = test system: Hepatotoxicity; remark: listed apart in the source;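 as to HepSE cholecystitis: Cholecystitis-related hepatic side effect score drawn from the DILIps (drug-induced liver injury prediction) training data set; call rule not given here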;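 as to HepSE cholelithiasis: hepatic side effect score for cholelithiasis, drawn from the DILIps training data for predicting drug-induced liver injury; call rule not given here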;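 as to HepSE cirrhosis: cirrhosis hepatic side effect score taken from the DILIps (drug-induced liver injury prediction) training set; call rule not given here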;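 as to HepSE elevated liver function tests: hepatic side effect score for raised liver function tests, as recorded in the DILIps training set used for predicting drug-induced liver injury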; as to HepSE hepatic failure: call rule not given here;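 as to HepSE hepatomegaly: hepatic side effect score for hepatomegaly, taken from the training set of the DILIps drug-induced liver injury prediction system; call rule not given here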; as to HepSE liver disease: call rule not given here
[3] = test system: Hepatotoxicity; remark: listed apart in the source;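 as to HepSE cholecystitis: Cholecystitis-related hepatic side effect score drawn from the DILIps (drug-induced liver injury prediction) training data set; call rule not given here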;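 as to HepSE cholelithiasis: hepatic side effect score for cholelithiasis, drawn from the DILIps training data for predicting drug-induced liver injury; call rule not given here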;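 as to HepSE cirrhosis: cirrhosis hepatic side effect score taken from the DILIps (drug-induced liver injury prediction) training set; call rule not given here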;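 as to HepSE elevated liver function tests: hepatic side effect score for raised liver function tests, as recorded in the DILIps training set used for predicting drug-induced liver injury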; as to HepSE hepatic failure: call rule not given here;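 as to HepSE hepatomegaly: hepatic side effect score for hepatomegaly, taken from the training set of the DILIps drug-induced liver injury prediction system; call rule not given here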; as to HepSE liver disease: call rule not given here
[4] = test system: Hepatotoxicity; remark: listed apart in the source;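 as to HepSE cholelithiasis: hepatic side effect score for cholelithiasis, drawn from the DILIps training data for predicting drug-induced liver injury; call rule not given here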;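 as to HepSE cirrhosis: cirrhosis hepatic side effect score taken from the DILIps (drug-induced liver injury prediction) training set; call rule not given here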;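 as to HepSE elevated liver function tests: hepatic side effect score for raised liver function tests, as recorded in the DILIps training set used for predicting drug-induced liver injury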; as to HepSE hepatic failure: call rule not given here;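 as to HepSE hepatomegaly: hepatic side effect score for hepatomegaly, taken from the training set of the DILIps drug-induced liver injury prediction system; call rule not given here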; as to HepSE liver disease: call rule not given here
[5] = test system: Hepatotoxicity; remark: listed apart in the source; as to HepSE hepatic failure: call rule not given here; as to HepSE liver disease: call rule not given here
[6] = test system: Hepatotoxicity; remark: listed apart in the source; as to HepSE hepatic failure: call rule not given here; as to HepSE liver disease: call rule not given here
[7] = test system: Hepatotoxicity; remark: listed apart in the source
[8] = test system: Hepatotoxicity; remark: listed apart in the source
[9] = test system: Hepatotoxicity; remark: listed apart in the source
[10] = test system: Hepatotoxicity; remark: listed apart in the source
[11] = test system: Hepatotoxicity; remark: listed apart in the source
[12] = test system: Hepatotoxicity; remark: listed apart in the source
[13] = test system: Hepatotoxicity; remark: listed apart in the source
[14] = test system: Hepatotoxicity; remark: listed apart in the source

SMILES	HepSE_hepatomegaly [1]	HepSE_cirrhosis [2]	HepSE_liver disease [3]	HepSE_elevated liver function tests [4]	HepSE_hepatic failure [5]	HepSE_cholelithiasis [6]	HepSE_liver fatty [7]	HepSE_cholecystitis [8]	HepSE_Combined Scores [9]	HepSE_hepatic necrosis [10]	HepSE_hepatitis [11]	HepSE_bilirubinemia [12]	HepSE_jaundice [13]	HepSE_liver function tests abnormal [14]	also measured
CCCCC(=O)N(Cc1ccc(-c2ccccc2-c2nnn[nH]2)cc1)[C@H](C(=O)O)C(C)C	0	0	0	0	0	0	0	0	1	0	1	0	0	0	–
COc1ccc(-c2ccc3cc(C(=O)O)ccc3c2)cc1C12CC3CC(CC(C3)C1)C2	0	0	0	0	0	0	0	0	1	0	1	0	0	0	–
CNS(=O)(=O)Cc1ccc2[nH]cc(CCN(C)C)c2c1	0	0	0	1	0	0	0	0	2	0	0	0	0	1	–
CC1=C(CC(=O)O)c2cc(F)ccc2/C1=C\c1ccc([S+](C)[O-])cc1 (stereo not given)	0	0	0	0	1	0	0	1	4	0	1	0	1	0	–
Nc1nc(N)c2nc(-c3ccccc3)c(N)nc2n1	0	0	0	0	0	0	0	0	1	0	0	0	1	0	–
CN1C(C(=O)Nc2ccccn2)=C(O)c2ccccc2S1(=O)=O [PIROXICAM]	0	0	0	0	1	0	0	0	3	0	–	0	1	0	–
Nc1ccc(S(N)(=O)=O)cc1 [SULFANILAMIDE]	–	–	–	–	–	–	–	–	–	–	–	–	–	–	HepSE_hepatomegaly ([1]; Liver): 0; HepSE_cirrhosis ([2]; Liver): 0; HepSE_liver disease ([3]; Liver): 0; HepSE_hepatic failure ([5]; Liver): 0; HepSE_cholelithiasis ([6]; Liver): 0; HepSE_liver fatty ([7]; Liver): 0; HepSE_cholecystitis ([8]; Liver): 0; HepSE_Combined Scores ([9]; Liver): 0; HepSE_hepatic necrosis ([10]; Liver): 0; HepSE_hepatitis ([11]; Liver): 0; HepSE_bilirubinemia ([12]; Liver): 0; HepSE_jaundice ([13]; Liver): 0
